# From a melting point compilation (Tetko et al.; mined from patent text by program, amines drawn as free bases though some values may be those of a salt)
row,melting point [°C],SMILES
1,199,O=C(O)c1ccc(-c2ccc(Cl)cc2)c(O)c1
2,208 to 209,C=CCOc1nc(Cl)nc2nc[nH]c12
3,234 to 235,CCc1nn(C)c(CC)c1NC(N)=S
4,156,CCCCC(=N)NC(=O)Nc1ccccc1
5,129 to 131,"CCOCN1C(C)=C(C(=O)O)C(c2cccc(Cl)c2Cl)C(C(=O)OC)=C1C (single isomer, unassigned; (+))"
6,123 to 124,COc1cccc2c1CCC1CCC(=O)N(C)CC21 (stereo not drawn)
7,161 to 163,O=C(c1ccc(F)cc1F)N1Cc2cccnc2Nc2ccccc21
8,192 to 195,CC(CCC(=O)N(C)C)C1CC=C2C3=C(CCC21C)C1(C)CCC(O)C(C)(C)C1CC3 (stereo not drawn)
9,132 to 136,C[C@]1(CN2CCC(OCc3ccc(Cl)c(Cl)c3)CC2)Cn2cc([N+](=O)[O-])nc2O1
10,204 to 207,COc1cc2cc(CO)c(CO)c(-c3ccnc(Nc4ccccc4C(CO)CCO)c3)c2cc1OC (stereo not drawn)
11,76 to 77,CC(=O)C1Oc2c(C(C)(C)C)cc(Cl)cc2C1(C)C (stereo not drawn)
12,143 to 144,CO[C@H]1CC[C@H](N(C)C(=O)c2ccc3nonc3c2)CC1
13,145,CN(C)c1nc(Br)cnc1N
14,116 to 119,CCOc1nc(-c2ccc(OC)c(OC)c2)cc(=Nc2c(C)cc(C)cc2C)n1C
15,138 to 140,CN(C)CCCN1C(=O)C(NC(=O)Nc2ccccc2)C(=O)N(CC23CC4CC(CC(C4)C2)C3)c2ccccc21 (stereo not drawn)
16,85 to 87,N#CNc1ccccc1-c1ccccc1
17,238 to 242,NS(=O)(=O)c1ccc(N2CCN(Cc3cn4ccccc4n3)CC2)cc1
18,130 to 132,Clc1cc(-c2ccc3c(c2)CCO3)nc2ccccc12
19,196,CC(=O)OC1CSC(Oc2ccc(-c3cccnc3)nc2)C(OC(C)=O)C1OC(C)=O (stereo not drawn)
20,156 to 157,CC(=O)N[C@@H]1[C@@H](CC2CO2)CC(C(=O)O)=C[C@H]1OC(C)C (stereo partly drawn)
21,142 to 144,NCc1cc2c(N)nccc2o1
22,96 to 97,O=C1NCc2cc(Br)sc21
23,253 to 254,CCC(c1cc(C(=O)Nc2ccc(-c3ccc(C(=O)NS(C)(=O)=O)cc3C)cc2)ccc1OC)N(C)C (stereo not drawn)
24,59 to 61,CCOC(=O)CCCOc1ccc(C(C)=O)cc1
25,210 to 211,COc1ccc(OC)c(Cc2ccc3[nH]c(=S)[nH]c3c2)c1

row,melting point [°C],SMILES
1,146 to 147,Cc1noc(NS(=O)(=O)c2ccccc2-c2ccc(-c3ncco3)cc2CN(CC(F)(F)F)C(=O)C(C)(C)C)c1C
2,234 to 236,O=C1Cc2c(-c3ccccc3)ccc(Cl)c2N1
3,85 to 88,CNS(=O)(=O)OCCOc1ccc(-n2ccnc2)cc1
4,78 to 79.5,Cc1ccc(S(=O)(=O)Nc2ccc(F)cc2)cc1
5,236 to 238,Cc1cccc(-n2c(-c3sc(Nc4ccc(Cl)cc4)nc3C)nc3ccccc3c2=O)c1
6,120 to 124,CN1CCN(c2ccc(/C=C/c3cc(/C=C/c4ccc5cc[nH]c5c4)[nH]n3)c(Br)c2)CC1
7,> 300,CC(=O)OCc1nc2nc(O)cnc2c(=O)[nH]1
8,175,COc1cc2c(cc1OC)CN(CCc1ccc(NC(=O)c3cccc4c(=O)c5cccc(C)c5[nH]c34)cc1)CC2
9,134 to 135,CCS(=O)(=O)c1cc(OCCCCCCc2cccc(OCCCC(=O)O)c2CCC(=O)O)cc(-c2ccc3c(c2)OCO3)c1
10,212 to 214,CS(=O)(=O)c1ccc(C(=O)C2C(=O)N(C(N)=O)c3ccc(Cl)cc32)s1 (stereo not drawn)
11,189 to 192,COc1ccc2[nH]c(C(=O)N3CCC[C@H](C)C3)cc2c1
12,194 to 196,CC(C)(C)NCc1ccc(COc2cccc3c2CN(C2CCC(=O)NC2=O)C3=O)cc1 (stereo not drawn)
13,101 to 103,N#Cc1cccc(NC(=O)CN2CCC(Cc3ccc(F)cc3)CC2)c1
14,185 to 187,Cc1nc2n(n1)C(N1CCN(C)CC1)=Nc1ccccc1C2
15,176,CC(=O)C(CCC(=O)O)(CCC(=O)O)C(C)=O
16,192 to 193,Cc1[nH]cnc1/C=C/C(=O)c1coc2ccccc12
17,150,CCCCCCCCCCCCOCCCNC(=O)c1cc(OCC(=O)O)c2ccccc2c1O
18,208,CC1(C)C=Cc2c(ccc3c2C(=O)C(O)=CC3=O)O1
19,109 to 115,NCCC(=O)NCCCCCNC(=O)Cc1cccc(O)c1
20,227 to 229,ON=Cc1ccccc1-c1ccc2c(c1C=NO)OCO2
21,57,COCC(Oc1ccc(Nc2ccc(C(F)(F)F)cc2[N+](=O)[O-])cc1)C(=O)OC (stereo not drawn)
22,144 to 145,O=C(O)C(=O)N1CCC(Oc2ccc(Cl)cc2)CC1
23,206 to 207,Cn1c(=O)c2c(ncn2Cc2noc(O)n2)n(C)c1=O
24,137,Cc1nc(Nc2cccc(C(F)(F)F)c2)c2ccccc2c1Cc1ccc(Cl)nc1
25,115 to 117,CC(=O)Oc1cc([N+](=O)[O-])cc([N+](=O)[O-])c1OC(C)=O

row,melting point [°C],SMILES
1,172 to 184,COc1ccc(COC(C)(C)C(=O)Nc2c(N)n(Cc3ccc(OC)c(OC4CCCC4)c3)c(=S)[nH]c2=O)cc1
2,54,C=CCc1ccc2c(c1)CCC2O (stereo not drawn)
3,173 to 174,CCOC(=O)CCc1cc(O)nn1C1CCCCC1
4,115 to 119,O=CNCc1cccc(-c2ccc(Br)cc2)n1
5,> 270,CS(=O)(=O)Nn1c(=O)[nH]c2cc([N+](=O)[O-])c(-n3ccnc3)cc2c1=O
6,208 to 210,COc1ncccc1Nc1c(NC(NC(=O)c2cccc(Cl)c2)C(C)(C)C)c(=O)c1=O (stereo not drawn)
7,161 to 163,CC(CCNC(=O)c1ccc(Oc2ccc(F)cc2)o1)N(O)C(N)=O (stereo not drawn)
8,42 to 43,CN(C)C(=O)CCCOC(=O)C(C)(OCc1ccc2ccccc2c1)C(F)(F)F (stereo not drawn)
9,202,O=C(Cc1cccc(Br)c1)Nc1cccc(C(=O)NCCO)c1
10,195 to 198,COc1ccc(C(=O)Nc2ccc(C(C)(C)C#N)cc2)c(Cl)c1OC
11,124 to 125,Cn1ccnc1S(=O)(=O)CC(=O)C12CC3CC(CC(C3)C1)C2
12,168 to 170,COc1cc(OC)nc(NC(=O)NS(=O)(=O)C(C)c2ccccc2[N+](=O)[O-])n1 (stereo not drawn)
13,277,CC1(C)C(=CC=C2C(=O)c3ccccc3C2=C(C#N)C#N)N2CCc3cccc1c32
14,86 to 89.5,COc1ccc(CC(=O)N2C=CC(C)(C)C=C2)cc1OC
15,99 to 100,CCCC1(C)C(=O)N(CCl)S(=O)(=O)N1C (stereo not drawn)
16,164 to 165,Cc1ccc(C(=O)OCCN(C)C)cc1-n1c(C)cc(OCc2ccccc2CNC(=O)Nc2cc(C(C)(C)C)nn2-c2cccc(OCCO)c2)c(Cl)c1=O
17,146 to 147,CCCc1sc(NC(=O)C2CCCCC2)c(C#N)c1OC
18,120,CCOC(=O)c1c(N2CCNCC2)c2cccnc2n(Cc2ccccc2)c1=O
19,172 to 174,c1ccc2c(N3CCOCC3)nc(N3CCOCC3)nc2c1
20,233 to 237,Nc1cc(=O)nc(Nc2ccc(Cl)cc2)n1-c1ccccc1
21,128 to 129,COc1cc2c(cc1Br)CC(C)OC2c1ccc([N+](=O)[O-])cc1 (stereo not drawn)
22,87 to 88,c1ccc(COc2ccc(-c3nc(COc4cccc(CCCCn5ccnc5)c4)co3)cc2)cc1
23,95 to 97,C[C@H](Nc1c(-c2c(F)cc(F)cc2F)c(Br)nc2ncnn12)C(F)(F)F
24,225 to 226,c1ccc(-c2nc3cnccc3[nH]2)cc1
25,153,Nc1n[nH]c2cccc(I)c12

row,melting point [°C],SMILES
1,274 to 275,CCNC1=NS(=O)(=O)c2cc(Cl)sc2N1
2,260 to 285,COCC1COc2cc3ncnc(Nc4ccc(F)c(Cl)c4)c3cc2O1 (stereo not drawn)
3,89 to 91,C#CCNC(=O)c1cccc(F)c1N
4,88 to 89,CN(C(=O)COc1cc(C(F)(F)C(F)(F)F)no1)c1ccccc1
5,160 to 161,CCSNc1c(C#N)c(C)nn1-c1c(Cl)cc(C(F)(F)F)cc1Cl
6,185 to 187,Cc1c(SCCCSc2nnnn2CC(=O)O)ccnc1CSc1ccncc1
7,208,Cc1[nH]cnc1CSCCNC1=C([N+](=O)[O-])CCN1
8,234 to 238,Nc1ccc(-c2ccncc2)cc1[N+](=O)[O-]
9,41 to 42,COC(=O)c1c(C(F)F)nc(C(F)(F)F)c(C(=O)OC)c1OC(C)C
10,75 to 79,CCCCNC(=O)C1CCNCC1
11,101 to 104,CCOC(=O)c1nccc(N)n1
12,80 to 84,Nc1ccc(F)c(CO)c1
13,114,COCCCNc1nc(N)c(Cl)c(Cl)n1
14,201,C=CCNc1nc(NC(=O)Nc2ccccc2OC)nc(N(CCC(=O)O)Cc2ccc(Cl)c(Cl)c2)n1
15,136,CC(c1cc(F)cc(Br)c1O)c1cc(Cl)cc(C(C)c2cc(F)cc(Br)c2O)c1O (stereo not drawn)
16,188 to 190,O=C(O)C(CCc1ccc(Cl)cc1)(Cn1cncn1)c1ccccc1 (stereo not drawn)
17,81,CC(C)CNc1nc(-c2ccccc2)cn2ccnc12
18,80 to 81,CN(C)C(=O)CC1=C(n2nc(-c3c(-c4ccccc4)nn4ccccc34)ccc2=O)CCCC1
19,69 to 71,O=C(O)COc1cccc(OCCC(c2ccccc2)(c2ccccc2)c2ccccc2)c1
20,78 to 79,O=C(Cl)COc1nn(Cc2ccccc2)c2ccccc12
21,226,N#CC1=C(C2=CCNCC2)Nc2n[nH]cc2C1c1cccc(C#N)c1Br (stereo not drawn)
22,336 to 340,C=CCNc1nc(C2C(=O)Nc3ccc(Br)cc32)c2cn(C)nc2n1 (stereo not drawn)
23,137,COc1c(CC(C)(C)C(=O)O)n(Cc2ccc(Cl)cc2)c2ccc(O)cc12
24,120 to 121,CCOc1nn(Cc2ccc(OCc3cccnc3)cc2)cc1CCC(=O)O
25,173 to 174,Cc1nnc(-c2ccc3occ(-c4ccc(S(=O)CF)cc4)c3c2)o1 (stereo not drawn)

row,SMILES,melting point [°C]
1,CC1(C)N=C(c2ccccc2Cl)c2cc([N+](=O)[O-])ccc2NC1=O,125 to 127
2,CC1(O)CC2(C)C(=O)CCC2C2CCC3=CC(=O)CCC3(C)C21 (stereo not drawn),150 to 151
3,COc1cccc(C23CN(C)CC2CC32OCC(C)(C)CO2)c1 (stereo not drawn),132 to 135
